Measurements taken from PMC7884382, “A Phase 1 study of RO6870810, a novel bromodomain and extra-terminal protein inhibitor, in patients with NUT carcinoma, other solid tumours, or diffuse large B-cell lymphoma” (British Journal of Cancer, 2020).
Marks after values point to notes of the source that are not given here.

Legend:
[1] = tested on: solid tumours; assay: Clinical activity in other solid tumours (RECIST v1.1); type: in vivo, human
Text: Evaluation of the anticancer activity of RO6870810 was a secondary objective, as measured by time to first and best response, overall response rate, progression-free survival (PFS), duration of response and overall survival. […] Responders were defined as patients who achieved a confirmed CR or partial response (PR). PFS was defined as the time from the date of first study drug administration to the first date of objectively determined progressive disease (PD) or death from any cause. PFS was censored at the date of the most recent objective progression-free observation for patients who were still alive at the time of analysis and without evidence of tumour progression. For patients who received subsequent anticancer therapy prior to objective disease progression or death, PFS was censored at the date of the last objective progression-free observation prior to the date of subsequent therapy.

[2] = tested on: BET family bromodomains (BRD4, BRD3, BRD2 and BRDT); design: method as in data on file; conditions: ref data on file; cited from earlier work
[3] = RO6870810 plasma pharmacokinetics; type: in vivo, human
Method: The determination of RO6870810 PK was another secondary objective. RO6870810 plasma levels were measured during treatment and during the follow-up period. Venous blood samples were collected on multiple days during cycle 1 and on day 1 of subsequent cycles. Complete PK assessment parameters are included in the Supplementary Methods. Patients with sufficient data to determine PK parameters were included in the PK analysis population.
Formal hypothesis testing was not performed for this Phase 1 study. The sample size was based on a standard 3 + 3 dose-escalation design and was considered sufficient to evaluate the safety and clinical activity of RO6870810. AEs were coded using the current Medical Dictionary for Regulatory Activities, and safety and clinical efficacy were summarised using descriptive statistics. The 95% CI for the objective response rate was calculated using Wilson’s score method with continuity correction, and PFS was analysed using the Kaplan–Meier method. For the PK analyses, key exposure parameters such as maximum plasma concentration (Cmax) and area under the curve were summarised with descriptive statistics, and dose-exposure relationships were plotted graphically. Percentage changes in CD11b from baseline by flow cytometry were summarised with descriptive statistics and plotted over time. The relationship between percentage change from baseline in CD11b (average of three measurements taken pre-dose, at 2 h and at 4 h) on day 15 and the RO6870810 dose was plotted. To investigate the relationship between individual percentage changes in CD11b from baseline and RO6870810 concentration on day 15, the nonparametric regression LOESS curve fitting (locally weighted scatterplot smoothing) method was applied.
RO6870810 plasma concentrations were assessed in blood samples collected as follows:
Cycle 1, day 1: Blood samples were collected before and immediately after injection and 0.25, 0.5, 1, 2, 4, 6, 8, and 10 hours after the injection was completed
Cycle 1, day 2: Blood samples were collected 24 hours (pre-dose) and 28 hours (4 hours after receiving a second dose) after the injection on day 1 was completed
Cycle 1, day 8: A blood sample was drawn at the visit as a random value
Cycle 1, day 15: Blood samples were drawn before and immediately after injection and 0.25, 0.5, 1, 2, and 4 hours after the injection was completed
Cycle 1, day 22: Blood samples were drawn at the visit as a random value (28-day treatment cycle only)
Cycle X, day 1: On day 1 of all cycles after cycle 1, blood samples were drawn as a random value during the study visit
A blood sample was drawn as a random value during the end-of-treatment visit on early termination

[4] = Solid tumours, % of n = 42 with non-missing best response
[5] = solid tumours, of 42 patients with non-missing data

For Cc1sc2c(c1C)C(c1ccc(Cl)cc1)=N[C@@H](CC(=O)NCCCN1CCN(C)CC1)c1nnc(C)n1-2 [RO6870810], the Complete response ([1]; Solid tumours (n = 47)) was 0 n (%), the “Median time to first response (min-max)” value ([1]; Solid tumours (n = 47)) was 56.0 days and the “Missing response (no postbaseline tumour assessment)” value ([1]; Solid tumours (n = 47)) was 5 n (%). For the same compound, the Unknown response ([1]; Solid tumours (n = 47)) was 1 (2.4)^b n (%), the Partial response [1, 4] was 1 (2.4)^c n (%) and the Progressive disease [1, 4] was 15 (35.7)^c n (%). For the same compound, the Stable disease [1, 4] was 25 (59.5)^c n (%), the “Patients with PD as best response” value ([1]; adenocarcinoma pancreas) was 1 n and the “Patients with PD as best response” value ([1]; breast cancer) was 2 n. For the same compound, the “Patients with SD as best response” value ([1]; breast cancer) was 2 n, the “Patients with PD as best response” value ([1]; colorectal cancer) was 4 n and the “Patients with SD as best response” value ([1]; colorectal cancer) was 5 n. For the same compound, the “Patients with an unknown response” value ([1]; colorectal cancer) was “a patient”, the “Patients with PD as best response” value ([1]; endometrial cancer) was 1 n and the “Patients with PD as best response” value ([1]; fallopian tube cancer) was 1 n. For the same compound, the “Patients with PD as best response” value ([1]; gastrointestinal stromal tumour) was 1 n, the “Patients with SD as best response” value ([1]; hepatic cancer) was 1 n and the “Patients with PD as best response” value ([1]; non-small cell lung cancer) was 1 n. The “Patients with SD as best response” value ([1]; non-small cell lung cancer) was 1 n, the “Patients with SD as best response” value ([1]; oesophageal carcinoma) was 1 n and the “Patients with PD as best response” value ([1]; ovarian cancer) was 1 n. For the same compound, the “Patients with SD as best response” value ([1]; ovarian cancer) was 2 n, the “Patients with PD as best response” value ([1]; pancreatic cancer) was 1 n and the “Patients with SD as best response” value ([1]; pancreatic cancer) was 1 n. The “Tumour reduction at nadir” value ([1]; patient with acinic cell carcinoma of the parotid gland) was 46.8%, the “Tumour reduction at PR” value ([1]; patient with acinic cell carcinoma of the parotid gland, after two cycles, at 57 days) was > 40% and the “Patients with PD as best response” value ([1]; poorly differentiated carcinoma of unknown origin) was 1 n. The “Patients with SD as best response” value ([1]; prostate cancer) was 7 n, the “Patients with PR as best response” value ([1]; salivary gland cancer) was “a patient” and the “Patients with SD as best response” value ([1]; salivary gland cancer) was 4 n. The “Median PFS” value ([1]; solid tumours, 47 patients) was 90 days, the PFS range ([1]; solid tumours, 47 patients) was 9 to 315 days and the Objective response rate ([1]; solid tumours, n = 1 of 47, 95% CI, 0%–13%) was 2%. For the same compound, the “PD as best response” value [1, 5] was 36%, the “PR as best response” value [1, 5] was 2% and the “Patients with PD as best response” value ([1]; squamous cell carcinoma) was 1 n. For the same compound, the “Patients with SD as best response” value ([1]; uterine cancer) was 1 n, the “Affinity for the acetyl-lysine recognition pocket of BET family bromodomains” value [2] was “high affinity” and the “Dose-exposure relationship (Cmax and area under the curve over 24 h)” value ([3]; 0.03-0.65 mg/kg, cycle 1, day 1) was “dose-proportional”. For the same compound, the Absorption ([3]; SC, across dose levels) was “rapid absorption”, the “Time to Cmax” value ([3]; SC, days 1 and 15 of cycle 1) was ≤ 1 h and the “Time to Cmax, median” value ([3]; SC, days 1 and 15 of cycle 1) was 0.5 h. The half-life ([3]; human, plasma, sc) was ≥ 10 h, the Clearance ([3]; in vivo) was “bodyweight dependent” and the “Interpatient variability of Cmax” value ([3]; in vivo) was 38%. The “Interpatient variability of area under the curve over 24 h” value ([3]; in vivo) was 38% and the Metabolites in plasma ([3]; leftover plasma samples screened) was “no metabolites were found”.
